Data from US6358885B1, “Substituted phenylheterocyclic herbicides” (Mississippi State University, priority 1992, dated 2002).

Assays:
green foxtail = experiment: Test F preemergence/postemergence greenhouse plant response rating 0 to 100; format: in vivo, Setaria viridis; conditions: POSTEMERGENCE, 0 to 100 scale
Source text: (§1) Compounds evaluated in this test were formulated in a non-phytoxic solvent and applied to the soil surface before plant seedlings emerged (preemergence application) and to plants that were in the one-to-four leaf stage (postemergence application). A sandy loam soil was used for the preemergence test while a mixture of sandy loam soil and greenhouse potting mix in a 60:40 ratio was used for the postemergence test. Test compounds were applied within approximately one day after planting seeds for the preemergence test. Plantings of these crops and weed species were adjusted to produce plants of appropriate size for the postemergence test. All plant species were grown using normal greenhouse practices. Crop and weed species include winter barley (Hordeum vulgare cv. ‘Igri’), blackgrass (Alopecurus myosuroides), chickweed (Stellaria media), downy brome (Bromus tectorum), field violet (Viola arvensis), galium (Galium aparine), green foxtail (Setaria viridis), kochia (Kochia scoparia), lambsquarters (Chenopodium album), speedwell (Veronica persica), rape (Brassica napus), ryegrass (Lolium multiflorum), sugar beet (Beta vulgaris cv. ‘USl’), sunflower (Helianthus annuus cv. ‘Russian Giant’), spring wheat (Triticum aestivum cv. ‘ERA’), winter wheat (Triticum aestivum cv. ‘Talent’), wild buckwheat (Polygonum convolvulus), wild mustard (Sinapis arvensis), wild oat (Avena fatua), and wild radish (Raphanus raphanistrum). Blackgrass, galium and wild oat were treated at two growth stages. […] Treated plants and untreated controls were maintained in a greenhouse for approximately 21 to 28 days, after which all treated plants were compared to untreated controls and visually evaluated. […] A dash response (-) means no test result.

lambsquarters = experiment: as above; format: in vivo, Chenopodium album; conditions: POSTEMERGENCE, 0 to 100 scale
Source text: as §1

Japonica rice = experiment: Test E paddy water application plant response rating 0 to 100; format: in vivo, oryza sativa; conditions: Flood, 0 to 100 scale, approx. 21 days
Source text: (§2) Plastic pots were partially filled with silt loam soil. […] At testing, the water level for all plantings was raised to 2 cm above the soil surface. Chemical treatments were formulated in a non-phytotoxic solvent and applied directly to the paddy water. Treated plants and controls were maintained in a greenhouse for approximately 21 days, after which all species were compared to controls and visually evaluated. […] A dash (-) response means no test result.

wild mustard = experiment: Test F preemergence/postemergence greenhouse plant response rating 0 to 100; format: in vivo, Sinapis arvensis; conditions: POSTEMERGENCE, 0 to 100 scale
Source text: as §1

rape = experiment: as above; format: in vivo, Brassica napus; conditions: POSTEMERGENCE, 0 to 100 scale
Source text: as §1

wild oat = experiment: as above; format: in vivo, Avena fatua; conditions: POSTEMERGENCE, 0 to 100 scale; for Wild oat (1) plant response rating: stage (1) two to three leaves; for Wild oat (2) plant response rating: stage (2) approximately four leaves or initial tillering
Source text: as §1

kochia = experiment: as above; format: in vivo, Kochia scoparia; conditions: POSTEMERGENCE, 0 to 100 scale
Source text: as §1

barnyardgrass = experiment: Test E paddy water application plant response rating 0 to 100; format: in vivo, Echinochloa crus-galli; conditions: Flood, 0 to 100 scale, approx. 21 days
Source text: as §2

C#CC(C)N1C(=O)COc2cc(F)c(-c3nn4c(c3Cl)CCCC4)cc21 (stereo not drawn) [Compound 50]
Green foxtail plant response rating (green foxtail; Rate 16 g/ha): 0
Green foxtail plant response rating (green foxtail; Rate 32 g/ha): 0
Green foxtail plant response rating (green foxtail; Rate 64 g/ha): 50
Green foxtail plant response rating (green foxtail; Rate 125 g/ha): 50
Lambsquarters plant response rating (lambsquarters; Rate 16 g/ha): 30
Lambsquarters plant response rating (lambsquarters; Rate 32 g/ha): 50
Lambsquarters plant response rating (lambsquarters; Rate 64 g/ha): 100
Lambsquarters plant response rating (lambsquarters; Rate 125 g/ha): 100
Japonica 1 plant response rating (Japonica rice; Rate 8 g/ha): 0
Japonica 2 plant response rating (Japonica rice; Rate 8 g/ha): 15
Japonica 1 plant response rating (Japonica rice; Rate 16 g/ha): 20
Japonica 2 plant response rating (Japonica rice; Rate 16 g/ha): 20
Japonica 1 plant response rating (Japonica rice; Rate 32 g/ha): 40
Japonica 2 plant response rating (Japonica rice; Rate 32 g/ha): 30
Japonica 1 plant response rating (Japonica rice; Rate 64 g/ha): 50
Japonica 2 plant response rating (Japonica rice; Rate 64 g/ha): 35
Japonica 1 plant response rating (Japonica rice; Rate 125 g/ha): 75
Japonica 2 plant response rating (Japonica rice; Rate 125 g/ha): 45
Wild mustard plant response rating (wild mustard; Rate 16 g/ha): 70
Wild mustard plant response rating (wild mustard; Rate 32 g/ha): 70
Wild mustard plant response rating (wild mustard; Rate 64 g/ha): 100
Wild mustard plant response rating (wild mustard; Rate 125 g/ha): 100
Rape plant response rating (rape; Rate 16 g/ha): 100
Rape plant response rating (rape; Rate 32 g/ha): 100
Rape plant response rating (rape; Rate 64 g/ha): 100
Rape plant response rating (rape; Rate 125 g/ha): 100
Wild oat (1) plant response rating (wild oat; Rate 16 g/ha): 0
Wild oat (2) plant response rating (wild oat; Rate 16 g/ha): 0
Wild oat (1) plant response rating (wild oat; Rate 32 g/ha): 0
Wild oat (2) plant response rating (wild oat; Rate 32 g/ha): 0
Wild oat (1) plant response rating (wild oat; Rate 64 g/ha): 0
Wild oat (2) plant response rating (wild oat; Rate 64 g/ha): 0
Wild oat (1) plant response rating (wild oat; Rate 125 g/ha): 0
Wild oat (2) plant response rating (wild oat; Rate 125 g/ha): 0
Kochia plant response rating (kochia; Rate 16 g/ha): 100
Kochia plant response rating (kochia; Rate 32 g/ha): 100
Kochia plant response rating (kochia; Rate 64 g/ha): 100
Kochia plant response rating (kochia; Rate 125 g/ha): 100
Barnyardgrass 2 plant response rating (barnyardgrass; Rate 8 g/ha): 15
Barnyardgrass 3 plant response rating (barnyardgrass; Rate 8 g/ha): 10
Barnyardgrass 2 plant response rating (barnyardgrass; Rate 16 g/ha): 15
Barnyardgrass 3 plant response rating (barnyardgrass; Rate 16 g/ha): 15
Barnyardgrass 2 plant response rating (barnyardgrass; Rate 32 g/ha): 25
Barnyardgrass 3 plant response rating (barnyardgrass; Rate 32 g/ha): 20
Barnyardgrass 2 plant response rating (barnyardgrass; Rate 64 g/ha): 35
Barnyardgrass 3 plant response rating (barnyardgrass; Rate 64 g/ha): 35
Barnyardgrass 2 plant response rating (barnyardgrass; Rate 125 g/ha): 55
Barnyardgrass 3 plant response rating (barnyardgrass; Rate 125 g/ha): 60
